Reference: patent publication US20250228239A1, “MOLECULES HAVING PESTICIDAL UTILITY, AND INTERMEDIATES, COMPOSITIONS, AND PROCESSES, RELATED THERETO” (priority 2024, published 2025)
Like-named read-outs stand apart in the source and are kept apart here.

Legend:
[1] = test system: Beet Armyworm (Spodoptera exigua, LAPHEG); test: Bioassays on Beet Armyworm (BAW), 128-well diet tray assay; type: in vivo; conditions: Spodoptera exigua
Procedure, shortened: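 Percent larval mortality, averaged across eight wells, scored after five to seven days at 25° C. under 14:10 light-dark. Each well held one to five second instars feeding on diet dosed at 50 μg/cm^2 with compound from 90:10 acetone-water, solvent dried off.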

[2] = test system: Cabbage Looper (Trichoplusia ni, TRIPNI); test: Bioassays on Cabbage Looper (CL), 128-well diet tray assay; type: in vivo; conditions: Trichoplusia ni
Procedure, shortened: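 Activity is mean percent mortality over eight wells of second-instar larvae exposed to diet treated at 50 μg/cm^2 for 5–7 days at 25° C.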

[3] = Beet Armyworm, rating class, read-out: BAW
[4] = Cabbage Looper, rating class, read-out: CL
[5] = Beet Armyworm, Table ABC / ABC-DP rating, read-out: BAW rating
[6] = Cabbage Looper, Table ABC / ABC-DP rating, read-out: CL rating
[7] = Table ABC: Biological Results, species BAW, read-out: BAW
[8] = Table ABC: Biological Results, species CL, read-out: CL

| Compound | pest or weed control at 50 µg/cm2 [1, 3] | pest or weed control at 50 µg/cm2 [2, 4] | pest or weed control at 50 µg/cm2 [1, 5] | pest or weed control at 50 µg/cm2 [2, 6] | other results |
| --- | --- | --- | --- | --- | --- |
| CC(=O)Nc1cc(NC(=O)c2cc(NC(=O)[C@H]3[C@H](c4ccc(F)c(C(F)(F)F)c4)C3(Cl)Cl)ccc2Cl)c(F)cc1F [F1539, N-(5-Acetamido-2,4-difluorophenyl)-2-chloro-5-((1R,3R)-2,2-dichloro-3-(4-fluoro-3-(trifluoromethyl)phenyl)cyclopropane-1-carboxamido)benzamide] | 50 to 100% | 50 to 100% | – | – | – |
| CC(=O)Nc1c(F)cc(F)cc1NC(=O)c1cc(NC(=O)[C@H]2[C@H](c3cc(Cl)cc(Cl)c3)C2(Cl)Cl)ccc1Cl (relative stereo) [F1632, trans-N-(2-Acetamido-3,5-difluorophenyl)-2-chloro-5-(2,2-dichloro-3-(3,5-dichlorophenyl)cyclopropane-1-carboxamido)benzamide] | 50 to 100% | 50 to 100% | – | – | – |
| CCC(C#N)C(=O)Nc1c(F)ccc(NC(=O)c2cc(NC(=O)[C@H]3[C@H](c4ccc(F)c(C(F)(F)F)c4)C3(Cl)Cl)ccc2Cl)c1F (stereo partly drawn) [F1756, 2-Chloro-N-(3-(2-cyanobutanamido)-2,4-difluorophenyl)-5-((1R,3R)-2,2-dichloro-3-(4-fluoro-3-(trifluoromethyl)phenyl)cyclopropane-1-carboxamido)benzamide] | 50 to 100% | 50 to 100% | – | – | – |
| O=C(NCC(F)(F)F)c1cc(NC(=O)[C@@H]2[C@@H](c3ccc(F)c(F)c3)C2(Cl)Cl)ccc1Cl [F2100, 2-Chloro-5-((1S,3S)-2,2-dichloro-3-(3,4-difluorophenyl)cyclopropane-1-carboxamido)-N-(2,2,2-trifluoroethyl)benzamide] | – | – | 50 to 100% | 50 to 100% | – |
| O=C(NCCCCl)c1cc(NC(=O)[C@H]2[C@H](c3ccc(F)c(Cl)c3)C2(Cl)Cl)cc(Cl)c1F (relative stereo) [F2048, trans-3-Chloro-N-(3-chloropropyl)-5-(2,2-dichloro-3-(3-chloro-4-fluorophenyl)cyclopropane-1-carboxamido)-2-fluorobenzamide] | – | – | 50 to 100% | 50 to 100% | – |
| O=C(Nc1c(F)ccc([N+](=O)[O-])c1F)c1cc(NC(=O)[C@H]2[C@H](c3cc(Cl)c(Cl)c(Cl)c3)C2(Cl)Cl)cc(F)c1F [F1765, 5-((1R,3R)-2,2-Dichloro-3-(3,4,5-trichlorophenyl)cyclopropane-1-carboxamido)-N-(2,6-difluoro-3-nitrophenyl)-2,3-difluorobenzamide] | 50 to 100% | 50 to 100% | – | – | – |
| CN(C)CC(=O)N(C)NC(=O)c1cc(NC(=O)[C@H]2[C@H](c3cc(Cl)cc(Cl)c3)C2(Cl)Cl)ccc1Cl (relative stereo) [F2526, trans-2,2-Dichloro-N-(4-chloro-3-(2-(dimethylglycyl)-2-methylhydrazine-1-carbonyl)phenyl)-3-(3,5-dichlorophenyl)cyclopropane-1-carboxamide] | – | – | 50 to 100% | 50 to 100% | – |
| O=C(Nc1ccc(F)cc1)c1cc(NC(=O)[C@H]2[C@H](c3ccc(F)c(Cl)c3)C2(Cl)Cl)cc(F)c1F (relative stereo) [F1208, trans-5-(2,2-Dichloro-3-(3-chloro-4-fluorophenyl)cyclopropane-1-carboxamido)-2,3-difluoro-N-(4-fluorophenyl)benzamide] | – | – | – | – | pest or weed control at 50 µg/cm2 [1, 7]: 50 to 100%; pest or weed control at 50 µg/cm2 [2, 8]: 50 to 100% |
| O=C(Nc1ccc(F)c(NC(=O)C(F)F)c1F)c1cc(NC(=O)[C@H]2[C@H](c3ccc(Cl)c(Br)c3)C2(Cl)Cl)ccc1Cl [F1411, 5-((1R,3R)-3-(3-Bromo-4-chlorophenyl)-2,2-dichlorocyclopropane-1-carboxamido)-2-chloro-N-(3-(2,2-difluoroacetamido)-2,4-difluorophenyl)benzamide] | 50 to 100% | 50 to 100% | – | – | – |
| Cc1c(F)c(N)cc(NC(=O)c2cc(NC(=O)[C@H]3[C@H](c4ccc(F)c(C(F)(F)F)c4)C3(Cl)Cl)ccc2Cl)c1F [F1674, N-(5-Amino-2,4-difluoro-3-methylphenyl)-2-chloro-5-((1R,3R)-2,2-dichloro-3-(4-fluoro-3-(trifluoromethyl)phenyl)cyclopropane-1-carboxamido)benzamide] | 50 to 100% | 50 to 100% | – | – | – |
| O=C(NN=CC1CC1)c1cc(NC(=O)[C@H]2[C@H](c3cc(Cl)cc(Cl)c3)C2(Cl)Cl)ccc1Cl (relative stereo) [F3007, trans-2,2-Dichloro-N-(4-chloro-3-(2-(cyclopropylmethylene)hydrazine-1-carbonyl)phenyl)-3-(3,5-dichlorophenyl)cyclopropane-1-carboxamide] | – | – | 50 to 100% | 50 to 100% | mortality at 50 µg/cm2 ([1]; 168 h, second instar larvae, 50 μg/cm^2 of test molecule on artificial diet, 25° C., five to seven days, average of eight wells, read-out: BAW % Control (or Mortality) rating): 50 to 100%; mortality at 50 µg/cm2 ([2]; 168 h, second instar larvae, 50 μg/cm^2 of test molecule on artificial diet, 25° C., five to seven days, average of eight wells, read-out: CL % Control (or Mortality) rating): 50 to 100% |
| C=C(F)C(=O)Nc1c(F)ccc(NC(=O)c2cc(NC(=O)[C@H]3[C@H](c4ccc(Cl)c(Cl)c4)C3(Cl)Cl)ccc2Cl)c1F [F1871, 2-Chloro-5-((1R,3R)-2,2-dichloro-3-(3,4-dichlorophenyl)cyclopropane-1-carboxamido)-N-(2,4-difluoro-3-(2-fluoroacrylamido)phenyl)benzamide] | – | – | 50 to 100% | 50 to 100% | – |
| Nc1c(F)ccc(NC(=O)c2cc(NC(=O)[C@H]3[C@H](c4cc(Cl)cc(Cl)c4)C3(Cl)Cl)cc(F)c2Cl)c1F [F1324, N-(3-Amino-2,4-difluorophenyl)-2-chloro-5-((1R,3R)-2,2-dichloro-3-(3,5-dichlorophenyl)cyclopropane-1-carboxamido)-3-fluorobenzamide] | – | – | – | – | pest or weed control at 50 µg/cm2 [1, 7]: 50 to 100%; pest or weed control at 50 µg/cm2 [2, 8]: 50 to 100% |
| O=C(Nc1cc(NC(=O)C(F)(F)F)c(F)cc1F)c1cc(NC(=O)[C@H]2[C@H](c3cc(Cl)cc(Cl)c3)C2(Cl)Cl)cc(F)c1Cl [F1409, 2-Chloro-5-((1R,3R)-2,2-dichloro-3-(3,5-dichlorophenyl)cyclopropane-1-carboxamido)-N-(2,4-difluoro-5-(2,2,2-trifluoroacetamido)phenyl)-3-fluorobenzamide] | 50 to 100% | 50 to 100% | – | – | – |
| O=C(CCC(F)(F)C(F)(F)F)Nc1c(F)ccc(NC(=O)c2cc(NC(=O)[C@H]3[C@H](c4ccc(Cl)c(Cl)c4)C3(Cl)Cl)ccc2Cl)c1F [F1861, 2-Chloro-5-((1R,3R)-2,2-dichloro-3-(3,4-dichlorophenyl)cyclopropane-1-carboxamido)-N-(2,4-difluoro-3-(4,4,5,5,5-pentafluoropentanamido)phenyl) benzamide] | – | – | 50 to 100% | 50 to 100% | – |
| CC(=O)Nc1cc(NC(=O)c2cc(NC(=O)[C@H]3[C@H](c4cc(Cl)c(Cl)c(Cl)c4)C3(Cl)Cl)cc(C)c2Cl)c(F)cc1F [F1547] | 50 to 100% | 50 to 100% | – | – | – |
| O=C(Nc1ccc(F)cc1F)c1cc(NC(=O)[C@H]2[C@@H](c3cc(Cl)c(Cl)c(C(F)(F)F)c3)C2(Cl)Cl)ccc1Cl (relative stereo) [F1148, cis-2-Chloro-5-(2,2-dichloro-3-(3,4-dichloro-5-(trifluoromethyl)phenyl)cyclopropane-1-carboxamido)-N-(2,4-difluorophenyl)benzamide] | – | – | – | – | pest or weed control at 50 µg/cm2 [1, 7]: 50 to 100%; pest or weed control at 50 µg/cm2 [2, 8]: 50 to 100% |
